Laboratory results from the supplement of paper PMC8967900.

Key:
Assay in all cases: selective drug sensitivity score (sDSS, relative to normal bone marrow) (sDSS (score)); higher = more potent and effective on the cell line relative to normal bone marrow cells
Conditions in all cases: 72 h
P30-OHKUBO = system: P30-OHKUBO
REH = system: REH
RPMI-8402 = system: RPMI-8402
RCH-ACV = system: RCH-ACV
TANOUE = system: TANOUE
ALL-PO = system: ALL-PO
PEER = system: PEER
DND-41 = system: DND-41
MHH-CALL-3 = system: MHH-CALL-3
SUP-B15 = system: SUP-B15
COG-LL-402h = system: COG-LL-402h
NALM-16 = system: NALM-16
TMD5 = system: TMD5
CCRF-HSB2 = system: CCRF-HSB2
MOLT-16 = system: MOLT-16
COG-LL-355h = system: COG-LL-355h
COG-LL-394h = system: COG-LL-394h
MOLT-4 = system: MOLT-4
KASUMI-9 = system: KASUMI-9
SEM cells = system: SEM cells
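Note: ALL cell lines in 384-well plates, five doses spanning 10,000-fold, each plate scaled between vehicle and 100 µmol/L benzalkonium chloride controls, sDSS an adapted area-under-curve metric.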

Compound	selective drug sensitivity score (P30-OHKUBO)	selective drug sensitivity score (REH)	selective drug sensitivity score (RPMI-8402)	selective drug sensitivity score (RCH-ACV)	selective drug sensitivity score (TANOUE)	selective drug sensitivity score (ALL-PO)	selective drug sensitivity score (PEER)	selective drug sensitivity score (DND-41)	selective drug sensitivity score (MHH-CALL-3)	selective drug sensitivity score (SUP-B15)	selective drug sensitivity score (COG-LL-402h)	selective drug sensitivity score (NALM-16)	selective drug sensitivity score (TMD5)	selective drug sensitivity score (CCRF-HSB2)	selective drug sensitivity score (MOLT-16)	selective drug sensitivity score (COG-LL-355h)	selective drug sensitivity score (COG-LL-394h)	selective drug sensitivity score (MOLT-4)	selective drug sensitivity score (KASUMI-9)	selective drug sensitivity score (SEM cells)
CC(C)C[C@@H](C(=O)N[C@H](C(=O)OC1CCCC1)c1ccccc1)[C@H](O)C(=O)NO [Tosedostat] (top concentration 10000 nM)	4.96	-0.64	2.86	2.16	-5.24	6.96	0.06	5.16	15.3	11	-0.74	3.06	0.46	3.16	10.4	11.4	1.26	-0.54	2.56	0.86
C[C@H](Nc1ncnc2[nH]cnc12)c1cc2ccc(F)cc2nc1-c1ccccn1 [AMG319] (top concentration 1000 nM)	4.08	-1.02	-1.42	19.3	-0.12	-1.42	-1.42	-0.92	-0.42	0.48	5.88	-1.42	-1.42	-1.32	-1.42	4.58	-1.42	-1.42	1.18	-1.42
C1=N/C2=N/c3ccc(OCCN4CCCC4)c(c3)COC/C=C/COCc3cccc(c3)C(=C1)N2 [Pacritinib] (top concentration 10000 nM)	1.2	-3.2	-5.7	9.2	-8.4	-0.4	-5.6	-4.7	-7.7	-3.7	2.9	-8.2	-9.2	-3.5	-5.6	2.9	-4	-7.3	-0.9	1.5
COc1c(OCCCN2CCOCC2)ccc2c1N=C(NC(=O)c1cnc(N)nc1)N1CCN=C21 [Copanlisib] (top concentration 1000 nM)	10.1	8.28	2.58	22.2	-6.52	8.28	-5.82	-2.72	-0.62	-2.12	8.88	2.58	-5.32	1.98	7.68	12.2	-0.82	4.48	5.98	4.18
Cc1ccc(C(=O)Nc2ccc(CN3CCN(C)CC3)c(C(F)(F)F)c2)cc1C#Cc1cnc2cccnn12 [Ponatinib] (top concentration 1000 nM)	9.02	2.62	2.72	14.8	-3.78	14.1	18.6	1.42	10.7	31.8	10.2	-0.08	19	34.4	6.62	5.52	1.12	4.32	5.42	19.4
Cc1cccc(-c2[nH]c(CNc3ccccc3F)nc2-c2ccc3ncnn3c2)n1 [Vactosertib (TEW-7197)] (top concentration 2500 nM)	-0.4	-0.5	-0.5	-0.5	-0.5	-0.5	-0.5	3	-0.5	9	1.1	-0.4	-0.5	5.1	10.7	1.2	-0.5	2.3	1.4	4.5
CNC(=O)c1ccccc1Sc1ccc2c(/C=C/c3ccccn3)n[nH]c2c1 [Axitinib] (top concentration 10000 nM)	12.2	9.36	6.06	11.1	-2.94	9.16	17.3	0.16	-2.44	16.4	5.86	-2.34	6.76	11	13.1	-0.74	2.96	12.2	8.36	13.1
CN(C)Cc1c(C(=O)NCCOc2ccc(C(=O)NO)cc2)oc2ccccc12 [Abexinostat] (top concentration 10000 nM)	5.56	2.26	4.96	10.6	-7.54	6.76	6.16	4.46	15.4	6.26	13.4	0.56	5.36	6.36	5.66	3.36	3.86	3.76	8.26	5.46
CC(C)NC[C@@H](C(=O)N1CCN(c2ncnc3c2[C@H](C)C[C@H]3O)CC1)c1ccc(Cl)cc1 [Ipatasertib] (top concentration 10000 nM)	1.9	13.2	4.8	12	-1.8	6.7	-1.6	1.1	0.2	0.8	7.3	1.7	-1.8	0.3	10.9	5.8	-0.3	7.1	-0.2	3.3
